Source: patent US9046527B2, “Mutated SUMO isoforms and uses thereof” (Université De Montréal, priority 2009, dated 2015)

Experiments:
protein SUMOylation = test: NTA purification of His6-SUMO1 mutant proteins, silver-stained SDS-PAGE and immunoblot anti-His; format: cell-based, human; conditions: cells stably expressing His6-SUMO1 mutant, stimulation with As2O3
Method: FIG. 20 illustrates gel electrophoresis separation of His6-SUMO1 mutant proteins following NTA purification. Silver-stained SDS-PAGE and immunoblot anti-His show an enrichment of His6-SUMO1 proteins as indicated from the trail of protein bands at the top of the gel.
(§1) SUMOylated proteins were purified from 10^9 cells of stably expressing His6-SUMO1 mutant; half of cell culture was treated with 1 μM As2O3 during 4 hours. Cells were harvested, washed with PBS and lysed with 15 mL of Buffer A (6 M guanidinium-HCl, 0.1 M NaH2PO4, 0.01 M Tris-HCl, pH 8.0, 10 mM-mercaptoethanol). The lysate was sonicated, centrifuged at 16 000 g for 30 minutes and filtered on 0.45 μm and mixed with 500 μL Ni^2+-NTA agarose beads (Invitrogen) pre-washed with lysis buffer and incubated overnight at room temperature on rotating wheel. The NTA beads were successively washed with the following solutions: buffer A, buffer B (8 M Urea, 0.1 M NaH2PO4, 0.01 M Tris-HCl, pH 6.3, 10 mM-mercaptoethanol), buffer B plus 0.2% Triton X-100, twice with buffer B. His SUMO proteins were eluted from the NTA beads using 200 mM imidazole, 0.15 M Tris-HCl, pH 6.7, 5% Glycerol. An example of the enriched His6-SUMO1 mutant proteins is shown on FIG. 20 following SDS-PAGE separation and gel visualisation using silver staining and anti-His immonublot.

PML = biological target: T1, PML (Homo sapiens, UniProt P29590); test: LC-MS/MS of tryptic peptides from NTA-purified His-SUMO3 proteins of HEK293 cells treated or not with As2O3; format: cell-based
T1 construct: tryptic peptides from NTA-purified His-SUMO3 proteins of HEK293 cells treated or not with As2O3; endogenous in cells; host or cells: HEK293 cells expressing the His-SUMO3 mutant
T1 sequence (P29590 1-882): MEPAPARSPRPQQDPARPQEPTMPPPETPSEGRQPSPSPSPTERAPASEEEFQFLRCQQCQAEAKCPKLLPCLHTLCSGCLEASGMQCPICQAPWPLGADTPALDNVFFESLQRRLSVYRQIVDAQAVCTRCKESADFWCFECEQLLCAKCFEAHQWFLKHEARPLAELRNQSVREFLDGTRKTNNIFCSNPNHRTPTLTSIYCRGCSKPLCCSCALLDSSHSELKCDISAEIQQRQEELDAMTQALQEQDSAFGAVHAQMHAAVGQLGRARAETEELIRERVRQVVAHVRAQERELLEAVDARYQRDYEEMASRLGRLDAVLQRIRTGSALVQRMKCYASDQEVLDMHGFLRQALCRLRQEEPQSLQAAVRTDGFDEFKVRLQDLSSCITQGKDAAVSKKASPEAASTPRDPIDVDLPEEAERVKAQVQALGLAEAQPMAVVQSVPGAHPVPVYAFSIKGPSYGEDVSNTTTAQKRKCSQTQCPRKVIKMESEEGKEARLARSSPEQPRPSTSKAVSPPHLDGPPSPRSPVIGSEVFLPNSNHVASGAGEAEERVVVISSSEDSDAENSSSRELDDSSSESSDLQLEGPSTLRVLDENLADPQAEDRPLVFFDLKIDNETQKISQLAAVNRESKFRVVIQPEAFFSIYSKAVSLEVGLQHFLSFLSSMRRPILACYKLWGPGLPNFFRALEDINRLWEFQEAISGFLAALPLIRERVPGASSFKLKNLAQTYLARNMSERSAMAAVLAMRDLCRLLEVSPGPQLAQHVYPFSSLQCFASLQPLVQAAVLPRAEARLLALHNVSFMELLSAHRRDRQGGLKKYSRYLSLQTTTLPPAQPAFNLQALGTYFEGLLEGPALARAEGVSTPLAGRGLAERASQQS
Method: FIG. 21 is a scatter plot of tryptic peptides from NTA-purified His-SUMO3 proteins of HEK293 cells treated or not with As2O3.
as §1
This scatter plot compares the abundance of more than 4500 peptide ions, of which approximately 45 correspond to SUMOylated tryptic peptides (blue circles). […]

[1] = test system: PML-nuclear bodies in HEK293 human cells; test: Immunofluorescence microscopy: co-localization of PML-Yellow Fluorescence Protein with His6-SUMO to nuclear bodies; format: cell-based; conditions: HEK293, incubation with 1 μM As2O3
Description: Immunofluorescence microscopy of HEK293 human cells showing co-localization of PML-Yellow Fluorescence Protein with His6 SUMO1 WT (top) and Q92R mutant (bottom) to nuclear bodies. […] DAPI staining (nucleus).
Immunofluorescence microscopy of HEK293 human cells showing co-localization of PML-Yellow Fluorescence Protein with His6-SUMO1 WT, His6-SUMO1 mutant, His6-SUMO2 WT, His6-SUMO2 mutant, His6-SUMO3 WT, and His6-SUMO3 mutant to nuclear bodies, DAPI staining (nucleus).
The functional activity of the wild type and SUMO mutants was also determined from immunofluorescence microscopy by monitoring the recruitment of the SUMOylated promyelocytic leukaemia (PML) substrate to nuclear bodies following treatment of HEK293 cells with As2O3 (FIG. 14). The visualization of all SUMO mutants using this immunofluorescence assay also confirmed the functional activity of all three SUMO isoforms (FIG. 15).

[2] = test system: Ubiquitin-conjugating enzyme E2; test: In vitro SUMOylation assay; format: biochemical; conditions: Coomassie or silver stained gel
Method: For in vitro SUMOylation, the reaction mixture comprised 20 μL of reaction buffer (20 mM NH4CO3 pH 9, 20 mM NaCl, 0.5 mM DTT), 1 μg recombinant and purified SUMO proteins, 0.5 μg of substrate E2-25K (Boston Biochem) or RanGAP fragment (Boston Biochem), 0.1 μg SASE1/SAE2 heterodimer (Boston Biochem), 0.5 μg conjugating enzyme hUbC9 (Boston Biochem) with or without Mg-ATP solution (Boston Biochem) at 5 mM. The reaction mixture was incubated at 37° C. for 1 hour and subsequently stopped by adding an equal volume of Laemmli Buffer. The reaction mixture was analysed separated by SDS-PAGE and visualized using Western Blotting (2 μl), coomassie staining (10 μL) or silver staining (5 μL) as shown in FIGS. 7 and 8.
Protein extracts were subjected to electrophoresis through a 4-12% NuPAGE Bis-Tris polyacrylamide gel (Invitrogen, Burlington, ON, Canada) under denaturing conditions. After electrophoresis, proteins were fixed within the polyacrylamide gel by incubating the entire gel in 5% (v/v) acetic acid in a 1:1 (v/v) water:ethanol solution. For silver staining, the gel was first sensitized for 1 minute using an aqueous solution of 0.02% sodium thiosulfate (Na2S2O3) unless otherwise indicated. Staining was performed by incubating the gel in 0.1% (v/v) silver nitrate (AgNO3) in water for 25 minutes at 4° C. Finally, the gel was developed in 3% (w/v) sodium carbonate (Na2CO3, pH: 11.4) containing 0.05% formalin (v/v) in water. The staining was then stopped with a solution of 5% (v/v) acetic acid in water. For Coomassie blue staining, proteins were fixed after gel separation and stained in a one-step procedure by incubating the entire gel in 0.1% (w/v) Coomassie Brilliant Blue R-250 in a 1:8:11 (v/v/v) acetic acid:methanol:water mixture for 1 hour at room temperature (RT). The gel was finally rinsed three times in a 1:4:5 (v/v/v) acetic acid:methanol:water solution at RT to visualize protein bands.

HA-RanGAP = test: In vivo SUMOylation assay with transfected HA-RanGAP, immunoblot anti-HA; format: cell-based, human
Method: FIG. 9 illustrates immunoblot of in vivo SUMOylation assay using transfected HA-RanGAP as protein substrate. Immunoblots are performed using an antibody that recognized the HA epitope. Immunoblots are presented for His6-SUMO1 (wild type, and mutant Q92R).
SUMO isoform mutants can also be co-transfected in mammalian cells with target protein substrates. For example, RanGAP1, a known SUMOylation target forms a tight complex in association with NUP358 and UBE2I/UBC9. The ubiquitin-conjugating enzyme E2 interacts with UBE2I favoring the conjugation of SUMO1 to RANGAP1, and subsequently stabilizes interactions of SUMOylated RANGAP1 with RANBP2/NUP358. The SUMO1/RANGAP1/UBC9/NUP358 complex associates with nuclear pore complexes (Joseph, J., Tan, S. H., Karpova, T. S., McNally, J. G., and Dasso, M. (2002). SUMO-1 targets RanGAP1 to kinetochores and mitotic spindles. The Journal of cell biology 156, 595-602; Swaminathan, S., Kiendl, F., Korner, R., Lupetti, R., Hengst, L., and Melchior, F. (2004). RanGAP1*SUMO1 is phosphorylated at the onset of mitosis and remains associated with RanBP2 upon NPC disassembly. The Journal of cell biology 164, 965-971). The SUMO isoform mutants are also functional and can be conjugated to RanGAP1 following transfection of these proteins in […] cells, as illustrated in FIG. 9. […]

Molecule: [AsH3] [As2O3]
- protein SUMOylation (His6-SUMO1 protein bands) (protein SUMOylation): Enhanced protein SUMOylation
- abundance of PML peptides (PML; HEK293, NTA-purified His-SUMO3 proteins, upon As2O3 treatment): significant increased in abundance
- increase in SUMOylation of K490 bearing PML peptide (PML; HEK293 His-SUMO3 mutant, As2O3 treated vs not treated): 8 fold
- formation of PML-nuclear bodies [1]: Increase formation of PML-nuclear bodies

Molecule: His6-SUMO1 E93R: recombinant His6-SUMO1 with mutation E93R
- SUMOylated E2 band on stained gel [2]: SUMOylated E2 is observed as the highest molecular weight band

Molecule: His6-SUMO1 Q92R: Substitution of Gln for Arg at position 92 in endogenous SUMO1 protein, N-terminal His6; SEQ ID NO: 4
- SUMOylated E2 band on stained gel [2]: SUMOylated E2 is observed as the highest molecular weight band
- SUMOylated HA-RanGAP band on immunoblot (HA-RanGAP): SUMOylated HA-RanGAP is observed as the highest molecular weight band

Molecule: His6-SUMO1 Q94R: recombinant His6-SUMO1 with mutation Q94R
- SUMOylated E2 band on stained gel [2]: SUMOylated E2 is observed as the highest molecular weight band

Molecule: His6-SUMO2 Q88R: Substitution of Gln for Arg at position 88 in endogenous SUMO2 protein, N-terminal His6; SEQ ID NO: 8
- SUMOylated E2 band on stained gel [2]: SUMOylated E2 is observed as the highest molecular weight band

B1: His6-SUMO3 Q92R/Q93N: Gln to Arg at position 87 and Gln to Asn at position 88 in endogenous SUMO3, N-terminal His6; SEQ ID NO: 12 (protein, listed as Homo sapiens)
chain: MAHHHHHHGGSMSEEKPKEGVKTENDHINLKVAGQDGSVVQFKIKRHTPLSKLMKAYCERQGLSMRQIRFRFDGQPINETDTPAQLEMEDEDTIDVFRNQTGG
modifications: N-terminal His6
- SUMOylated E2 band on stained gel [2]: SUMOylated E2 is observed as the highest molecular weight band
